Test results from patent US20140194480A1, “METHODS FOR THE CONTROL OF TERMITES AND ANTS” (SYNGENTA PARTICIPATIONS AG, priority 2011, published 2014).

Legend:
[1] = test system: termites; assay: Transfer test: termites exposed 6 h on treated sand, then combined with unexposed termites; total termite mortality; type: in vivo; conditions: for % mortality: Table 3; for % mortality of the total termites: Table 4
Method: Washed sand is treated with the experimental compound in a volatile solvent, so as to deliver the desired concentration w/w in the solvent free sand. Once the solvent has evaporated, the sand is thoroughly mixed and made up with deionised water to 3% w/w moisture content. Ca. 5 g of the so treated sand is placed in the base of a 9 cm Petri dish. 20 worker termites are placed on the treated sand and placed in a dark room under similar temperature to their culture colony. After 6 hours the termites are assessed for mortality and carefully removed from the treated sand, before being placed in a similar Petri dish of untreated sand (3% moisture content). 20 further termites are taken from the same colony and placed in the Petri dish with the exposed termites, along with a section of filter paper ca. 2 cm^2. The lid of the Petri dish is replaced and sealed with laboratory film. The so constructed Petri dish arena are placed in a dark room with a similar temperature to the culture colony. Assessments of total termite mortality, symptomology and behaviour are made at daily intervals.

[2] = test system: termites; assay: Treated sand column test: termite mortality and distance tunnelled into treated sand; type: in vivo
Method: Washed sand was treated with the experimental compound diluted in acetone. The acetone was allowed to evaporate, and the sand thoroughly mixed. De-ionised water was added to the treated sand to give a final water content of 3%. The treated sand was then packed into a glass tube with an internal diameter of 13.2 mm, to produce a 4 cm column. This was held in place at one end with a section of 7% agar. Sections of filter paper were placed at both ends of the column. Approximately 25 mixed age termites were added to the end of the tube containing the agar. Both ends were then sealed with rubber bungs. Assessments were made 1, 2, 3, 7 and 21 days after infestation, measuring termite mortality and the distance tunnelled into the treated sand.

[3] = 2.5 ppm, 0 days after treatment
[4] = 2.5 ppm, 2 days after treatment
[5] = 2.5 ppm, 3 days after treatment
[6] = 2.5 ppm, 6 days after treatment
[7] = 2.5 ppm, 7 days after treatment
[8] = 2.5 ppm, 8 days after treatment
[9] = 2.5 ppm, 9 days after treatment
[10] = 2.5 ppm, 14 days after treatment
[11] = 1.25 ppm, 0 days after treatment
[12] = 1.25 ppm, 1 day after treatment
[13] = 1.25 ppm, 2 days after treatment
[14] = 1.25 ppm, 3 days after treatment
[15] = 1.25 ppm, 6 days after treatment
[16] = 1.25 ppm, 7 days after treatment
[17] = 1.25 ppm, 8 days after treatment
[18] = 1.25 ppm, 9 days after treatment
[19] = 1.25 ppm, 14 days after treatment

`Cc1cc(C2=NOC(c3cc(Cl)cc(Cl)c3)(C(F)(F)F)C2)ccc1C(=O)NC1(C)CSC1` (racemic) [Compound 1] was tested, and the “% mortality” value ([1]; 10 ppm, 2 days after application) was 0%, the “% mortality” value ([1]; 10 ppm, 3 days after application) was 14% and the “% mortality” value ([1]; 10 ppm, 6 days after application) was 30%. The “% mortality” value ([1]; 10 ppm, 7 days after application) was 38%, the “% mortality” value ([1]; 10 ppm, 8 days after application) was 43% and the “% mortality” value ([1]; 10 ppm, 9 days after application) was 50%. The “% mortality” value ([1]; 10 ppm, 10 days after application) was 67%, the “% mortality” value ([1]; 10 ppm, 13 days after application) was 78% and the “% mortality” value ([1]; 10 ppm, 14 days after application) was 83%. For the same molecule, the “% mortality” value ([1]; 10 ppm, 15 days after application) was 87%, the “% mortality” value ([1]; 10 ppm, 16 days after application) was 88% and the “% mortality” value ([1]; 10 ppm, 17 days after application) was 92%. The “% mortality of the total termites” value [1, 3] was 0%, the “% mortality of the total termites” value ([1]; 2.5 ppm, 1 day after treatment) was 0% and the “% mortality of the total termites” value [1, 4] was 0.5%. For the same molecule, the “% mortality of the total termites” value [1, 5] was 0.5%, the “% mortality of the total termites” value [1, 6] was 0.5% and the “% mortality of the total termites” value [1, 7] was 1%. The “% mortality of the total termites” value [1, 8] was 1%, the “% mortality of the total termites” value [1, 9] was 1.5% and the “% mortality of the total termites” value [1, 10] was 1.5%. For the same molecule, the “% mortality of the total termites” value ([1]; 5 ppm, 0 days after treatment) was 0%, the “% mortality of the total termites” value ([1]; 5 ppm, 1 day after treatment) was 0.5% and the “% mortality of the total termites” value ([1]; 5 ppm, 2 days after treatment) was 1.5%. The “% mortality of the total termites” value ([1]; 5 ppm, 3 days after treatment) was 1.5%, the “% mortality of the total termites” value ([1]; 5 ppm, 6 days after treatment) was 1.5% and the “% mortality of the total termites” value ([1]; 5 ppm, 7 days after treatment) was 6%. The “% mortality of the total termites” value ([1]; 5 ppm, 8 days after treatment) was 6%, the “% mortality of the total termites” value ([1]; 5 ppm, 9 days after treatment) was 7% and the “% mortality of the total termites” value ([1]; 5 ppm, 14 days after treatment) was 7.5%. For the same molecule, the “% mortality of the total termites” value ([1]; 10 ppm, 0 days after treatment) was 0%, the “% mortality of the total termites” value ([1]; 10 ppm, 1 day after treatment) was 19.5% and the “% mortality of the total termites” value ([1]; 10 ppm, 2 days after treatment) was 23.5%. For the same molecule, the “% mortality of the total termites” value ([1]; 10 ppm, 3 days after treatment) was 27.5%, the “% mortality of the total termites” value ([1]; 10 ppm, 6 days after treatment) was 32.5% and the “% mortality of the total termites” value ([1]; 10 ppm, 7 days after treatment) was 33.5%. For the same molecule, the “% mortality of the total termites” value ([1]; 10 ppm, 8 days after treatment) was 35%, the “% mortality of the total termites” value ([1]; 10 ppm, 9 days after treatment) was 35.5% and the “% mortality of the total termites” value ([1]; 10 ppm, 14 days after treatment) was 37.5%.

With `Cc1cc(C2=NOC(c3cc(Cl)cc(Cl)c3)(C(F)(F)F)C2)ccc1C(=O)NC1CSC1` (racemic) [Compound 5] the “% mortality of the total termites” value [1, 11] was 0%, the “% mortality of the total termites” value [1, 12] was 3% and the “% mortality of the total termites” value [1, 13] was 12%. The “% mortality of the total termites” value [1, 14] was 12%, the “% mortality of the total termites” value [1, 15] was 20% and the “% mortality of the total termites” value [1, 16] was 24%. For the same molecule, the “% mortality of the total termites” value [1, 17] was 25%, the “% mortality of the total termites” value [1, 18] was 26.5% and the “% mortality of the total termites” value [1, 19] was 30%. The “% mortality of the total termites” value [1, 3] was 0%, the “% mortality of the total termites” value ([1]; 2.5 ppm, 1 day after treatment) was 15% and the “% mortality of the total termites” value [1, 4] was 31%. For the same molecule, the “% mortality of the total termites” value [1, 5] was 32%, the “% mortality of the total termites” value [1, 6] was 42% and the “% mortality of the total termites” value [1, 7] was 46.5%. For the same molecule, the “% mortality of the total termites” value [1, 8] was 46.5%, the “% mortality of the total termites” value [1, 9] was 49.5% and the “% mortality of the total termites” value [1, 10] was 56%. For the same molecule, the “% mortality of the total termites” value ([1]; 5 ppm, 0 days after treatment) was 0%, the “% mortality of the total termites” value ([1]; 5 ppm, 1 day after treatment) was 20.5% and the “% mortality of the total termites” value ([1]; 5 ppm, 2 days after treatment) was 42%. For the same molecule, the “% mortality of the total termites” value ([1]; 5 ppm, 3 days after treatment) was 44%, the “% mortality of the total termites” value ([1]; 5 ppm, 6 days after treatment) was 52.5% and the “% mortality of the total termites” value ([1]; 5 ppm, 7 days after treatment) was 54.5%. The “% mortality of the total termites” value ([1]; 5 ppm, 8 days after treatment) was 56.5%, the “% mortality of the total termites” value ([1]; 5 ppm, 9 days after treatment) was 56.5% and the “% mortality of the total termites” value ([1]; 5 ppm, 14 days after treatment) was 65.5%.

In the case of `N#Cc1nn(-c2c(Cl)cc(C(F)(F)F)cc2Cl)c(N)c1[S+]([O-])C(F)(F)F` (stereo not drawn) [Fipronil], the Mortality/average % ([2]; Table 1, 0.01 ppm in sand, 1 DAA) is reported as 7%, the Mortality/average % ([2]; Table 1, 0.01 ppm in sand, 2 DAA) is reported as 7% and the Mortality/average % ([2]; Table 1, 0.01 ppm in sand, 3 DAA) is reported as 7%. For the same molecule, the Mortality/average % ([2]; Table 1, 0.01 ppm in sand, 7 DAA) was 7%, the Mortality/average % ([2]; Table 1, 0.01 ppm in sand, 21 DAA) was 52% and the Mortality/average % ([2]; Table 1, 0.1 ppm in sand, 1 DAA) was 0%. For the same molecule, the Mortality/average % ([2]; Table 1, 0.1 ppm in sand, 2 DAA) was 28%, the Mortality/average % ([2]; Table 1, 0.1 ppm in sand, 3 DAA) was 33% and the Mortality/average % ([2]; Table 1, 0.1 ppm in sand, 7 DAA) was 77%. For the same molecule, the Mortality/average % ([2]; Table 1, 0.1 ppm in sand, 21 DAA) was 100%, the Mortality/average % ([2]; Table 2, 0.01 ppm in sand, 1 DAA) was 27% and the Mortality/average % ([2]; Table 2, 0.01 ppm in sand, 2 DAA) was 40%. The Mortality/average % ([2]; Table 2, 0.01 ppm in sand, 3 DAA) was 40%, the Mortality/average % ([2]; Table 2, 0.01 ppm in sand, 7 DAA) was 40% and the Mortality/average % ([2]; Table 2, 0.01 ppm in sand, 21 DAA) was 40%. It also gave a Mortality/average % ([2]; Table 2, 0.1 ppm in sand, 1 DAA) of 27%, a Mortality/average % ([2]; Table 2, 0.1 ppm in sand, 2 DAA) of 30% and a Mortality/average % ([2]; Table 2, 0.1 ppm in sand, 3 DAA) of 40%. For the same molecule, the Mortality/average % ([2]; Table 2, 0.1 ppm in sand, 7 DAA) was 40%, the Mortality/average % ([2]; Table 2, 0.1 ppm in sand, 21 DAA) was 40% and the “repellency (in words)” value ([2]; fipronil rates tested (0.1 and 0.01 ppm)) was “not repellent”.

In the case of `Cc1cc(C2=NCC(c3cc(Cl)cc(Cl)c3)(C(F)(F)F)C2)ccc1C(=O)NC1(C)CSC1` (racemic) [Compound 1b], the “% mortality of the total termites” value [1, 11] is reported as 0%, the “% mortality of the total termites” value [1, 12] is reported as 1.5% and the “% mortality of the total termites” value [1, 13] is reported as 3.5%. The “% mortality of the total termites” value [1, 14] was 5.5%, the “% mortality of the total termites” value [1, 15] was 6% and the “% mortality of the total termites” value [1, 16] was 6%. For the same molecule, the “% mortality of the total termites” value [1, 17] was 6%, the “% mortality of the total termites” value [1, 18] was 6.5% and the “% mortality of the total termites” value [1, 19] was 6.5%. The “% mortality of the total termites” value [1, 3] was 0%, the “% mortality of the total termites” value ([1]; 2.5 ppm, 1 day after treatment) was 10% and the “% mortality of the total termites” value [1, 4] was 19%. For the same molecule, the “% mortality of the total termites” value [1, 5] was 22.5%, the “% mortality of the total termites” value [1, 6] was 27% and the “% mortality of the total termites” value [1, 7] was 36%. For the same molecule, the “% mortality of the total termites” value [1, 8] was 36.5%, the “% mortality of the total termites” value [1, 9] was 37% and the “% mortality of the total termites” value [1, 10] was 38%. The “% mortality of the total termites” value ([1]; 5 ppm, 0 days after treatment) was 0%, the “% mortality of the total termites” value ([1]; 5 ppm, 1 day after treatment) was 15% and the “% mortality of the total termites” value ([1]; 5 ppm, 2 days after treatment) was 33.5%. For the same molecule, the “% mortality of the total termites” value ([1]; 5 ppm, 3 days after treatment) was 40.5%, the “% mortality of the total termites” value ([1]; 5 ppm, 6 days after treatment) was 52.5% and the “% mortality of the total termites” value ([1]; 5 ppm, 7 days after treatment) was 59.5%. For the same molecule, the “% mortality of the total termites” value ([1]; 5 ppm, 8 days after treatment) was 60%, the “% mortality of the total termites” value ([1]; 5 ppm, 9 days after treatment) was 61.5% and the “% mortality of the total termites” value ([1]; 5 ppm, 14 days after treatment) was 63.5%.
